This is an account of results in US6046218A, “Pyridine derivative and medicament containing the same as an effective ingredient” (SS Pharmaceutical Co., Ltd., priority 1996, dated 2000).

Type in all cases: cell-based
One test has as its system IL-5 production. The test is described as follows: Test 3: inhibition of IL-5 production in human PBMC stimulated with ConA. As to conditions: 10^-6 M, 10 μg/ml ConA, 48 hours, read-out: Inhibition rate of IL-5 production. The method, then: Test 3: Test on the inhibition of IL-5 production
The peripheral blood was collected from a normal volunteer and peripheral blood mononuclear cells (PBMC) of the human peripheral blood were separated therefrom by the specific gravity centrifugation method. They were suspended in an AIM-V medium and their cell count was adjusted. To individual wells of a 96-well incubation plate, 1×10^6 cells/ml of PBMC were poured, followed by the addition of a stimulator (10 μg/ml of ConA) and a medicament. The resulting mixture was incubated in 5% CO2 at 37° C. for 48 hours. After incubation, 50 μl of the supernatant were collected and subjected to measurement by a human IL-5 EIA kit (BIO SOURCE, INC.). The inhibition rate was calculated according to the following formula. [formula]

Test [1] relates to IL-4 production. In words: Test 2: inhibition of IL-4 production in human T-cell strain ATL-16T(-) stimulated with PMA (Bio Source EIA). The conditions noted are these: ATL-16T(-) 5×10^5 cells/0.5 ml/well, 20 nM PMA, 48 hours, read-out: Inhibition rate of IL-4 production; for inhibition at 10 µM: 10^-5 M; for inhibition at 1 µM: 10^-6 M; for inhibition at 0.1 µM: 10^-7 M; for inhibition at 0.01 µM: 10^-8 M. Here is the method:
Test 2: Test on the inhibition of IL-4 production
Into individual wells of a 48-well microplate, the human T-cell strain ATL-16T(-) was poured at a concentration of 5×10^5 cells/0.5 ml/well (n=3), followed by the addition of a stimulator (20 nM of PMA) and a medicament at the same time. The resulting mixture was incubated in 5% CO2 at 37° C. for 48 hours. After incubation, 50 μl of the supernatant were collected and subjected to measurement by a human IL-4 EIA kit (BIO SOURCE, INC.). The inhibition rate was calculated according to the following formula. [formula]

The subject of test [2] is IL-4 production. The test is described as follows: Test 1: inhibition of IL-4 production in human T-cell strain ATL-16T(-) stimulated with PMA (R&D Systems EIA). As to conditions: ATL-16T(-) 1×10^6 cells/0.5 ml/well, 20 nM PMA, 48 hours, read-out: Inhibition rate of IL-4 production; for inhibition at 10 µM: 10^-5 M; for inhibition at 1 µM: 10^-6 M; for inhibition at 0.1 µM: 10^-7 M; for inhibition at 0.01 µM: 10^-8 M. The method, then:
Test 1: Test on the inhibition of IL-4 production
Into individual wells of a 48-well microplate, the human T-cell strain ATL-16T(-) was poured at a concentration of 1×10^6 cells/0.5 ml/well (n=3), followed by the addition of a stimulator (20 nM of PMA) and a medicament at the same time. The resulting mixture was incubated in 5% CO2 at 37° C. for 48 hours. After incubation, 100 μl of the supernatant were collected and subjected to measurement by a human IL-4 EIA kit (R&D SYSTEMS, INC.). The inhibition rate was calculated according to the following formula. [formula]

Each structure is given as a SMILES string. Structures can show the parent of a compound that is named as a salt.

As a reminder, the inhibition is the relative decrease from the control value, in per cent. For `COc1cnc(/C=C/C(=O)c2ccc([N+](=O)[O-])cc2)cc1OC` [Ex. 52, 4,5-Dimethoxy-2-[3-(4-nitrophenyl)-3-oxo-1-propenyl]pyridine], in the test on IL-5 production, the inhibition at 1 µM was 64.2%. Further, in the test on IL-4 production [1], the inhibition at 10 µM was found to be 76.1%, the inhibition at 1 µM amounted to 48.9%, the inhibition at 0.1 µM amounted to 25.6% and the inhibition at 0.01 µM came to 11.6%.
For the molecule `COc1cnc(/C=C/C(=O)c2c(OC)cccc2OC)cc1O` [Ex. 56, 4-Hydroxy-5-methoxy-2-[3-(2,6-dimethoxyphenyl)-3-oxo-1-propenyl]pyridine], in the test with IL-5 production, the inhibition at 1 µM came to 79.8%. For the same molecule, in the test with IL-4 production [1], the inhibition at 10 µM is 101%, the inhibition at 1 µM is 53.7%, the inhibition at 0.1 µM worked out at 47.1% and the inhibition at 0.01 µM was determined as 42.1%.
The matching figures for `CCOC(=O)CCCCOc1cc(/C=C/C(=O)c2ccccc2OC)ncc1OC` [Ex. 95, Ethyl 5-[5-methoxy-2-(3-(2-methoxyphenyl)-3-oxo-1-propenyl)-4-pyridyloxy]pentanoate hydrochloride]: 65.6%, 105%, 60.9%, 59.2% and 57.3%.
`CCOC(=O)CCCOc1cc(/C=C/C(=O)C2CCCCC2)ncc1OC` [Ex. 76, Ethyl 4-[2-(3-cyclohexyl-3-oxo-1-propenyl)-5-methoxy-4-pyridyloxy]butanoatehydrochloride]: the inhibition at 1 µM with IL-5 production came out at 91.2%. In the test with IL-4 production [1], the inhibition at 10 µM stood at 75.3%, the inhibition at 1 µM was 70.5%, the inhibition at 0.1 µM was 69.1% and the inhibition at 0.01 µM stood at 67.7%.
Consider `COc1cnc(/C=C/C(=O)c2ccccc2[N+](=O)[O-])cc1OC` [Ex. 51, 4,5-Dimethoxy-2-[3-(2-nitrophenyl)-3-oxo-1-propenyl]pyridine], for which the inhibition at 1 µM in the test with IL-5 production was 93.6%. Further, in the test on IL-4 production [1], the inhibition at 10 µM was found to be 102%, the inhibition at 1 µM was determined as 20.5%, the inhibition at 0.1 µM was found to be 30.1% and the inhibition at 0.01 µM is 26.3%.
Take `CCOC(=O)CCCOc1cc(/C=C/C(=O)c2ccncc2)ncc1OC` [Ex. 72, Ethyl 4-[5-methoxy-2-(3-oxo-3-(4-pyridyl)-1-propenyl)-4-pyridyloxy]butanoate dih ydrochloride]: in the test with IL-5 production, the inhibition at 1 µM was 84.1%. In the test on IL-4 production [1], the inhibition at 10 µM was determined as 75.4%, the inhibition at 1 µM was 73.7%, the inhibition at 0.1 µM is 69.1% and the inhibition at 0.01 µM was 68.8%.
With `COc1cnc(/C=C/C(=O)C2CCCCC2)cc1OC1CCCC1` [Ex. 74, 2-(3-Cyclohexyl-3-oxo-1-propenyl)-4-cyclopentyloxy-5-methoxypyridine], the inhibition at 1 µM with IL-5 production turned out to be 77.9%. Further, in the test on IL-4 production [1], the inhibition at 10 µM stood at 81.6%, the inhibition at 1 µM is 32.4%, the inhibition at 0.1 µM amounted to 27.7% and the inhibition at 0.01 µM is 5.9%.
As to `COc1cnc(/C=C/C(=O)c2ccc(Cl)cc2Cl)cc1OC` [Ex. 53, 4,5-Dimethoxy-2-[3-(2,4-dichlorophenyl)-3-oxo-1-propenyl]pyridine], the inhibition at 1 µM in the test on IL-5 production was found to be 75%. Moreover, in the test on IL-4 production [1], the inhibition at 10 µM amounted to 105%, the inhibition at 1 µM was 103%, the inhibition at 0.1 µM was 16.7% and the inhibition at 0.01 µM was found to be 23.1%.
On to `COc1cnc(/C=C/C(=O)c2ccccc2)cc1OC(C)=O` [Ex. 7, 4-Acetoxy-5-methoxy-2-(3-oxo-3-phenyl-1-propenyl)pyridine], for which the inhibition at 1 µM in the test with IL-5 production came to 94.2%. Also, in the test with IL-4 production [2], the inhibition at 10 µM turned out to be 91.8%, the inhibition at 1 µM is 79.8%, the inhibition at 0.1 µM came out at 76.4% and the inhibition at 0.01 µM turned out to be 63.9%.
`CCCCCC(=O)/C=C/c1cc(OC(C)=O)c(OC(C)=O)cn1` [Ex. 11, 4,5-diacetoxy-2-(3-oxo-1-octenyl)pyridine]: the inhibition at 1 µM with IL-5 production is 77.3%. In the test on IL-4 production [2], the inhibition at 10 µM stood at 94.1%, the inhibition at 1 µM was determined as 87.2%, the inhibition at 0.1 µM came to 79.6% and the inhibition at 0.01 µM was determined as 78.9%.
For the molecule `CCCCCC(O)/C=C/c1cc(OCCCCCC(=O)OC)c(OC)cn1` (stereo not drawn) [Ex. 30, Methyl 6-[2-(3-hydroxy-1-octenyl)-5-methoxy-4-pyridyloxy]hexanoate], in the test with IL-5 production, the inhibition at 1 µM was 73.2%. Further, in the test on IL-4 production [2], the inhibition at 10 µM came to 74%, the inhibition at 1 µM is 67%, the inhibition at 0.1 µM stood at 56.8% and the inhibition at 0.01 µM came to 40.7%.
As to `CC(=O)Oc1cnc(/C=C/C(=O)c2ccccc2)cc1OC(C)=O` [Ex. 8, 4,5-Diacetoxy-2-(3-oxo-3-phenyl-1-propenyl)pyridine], the inhibition at 1 µM with IL-5 production was determined as 75.3%. In addition, in the test on IL-4 production [2], the inhibition at 10 µM is 94.3%, the inhibition at 1 µM was 88%, the inhibition at 0.1 µM came to 76.2% and the inhibition at 0.01 µM came out at 60.2%.
Take `COC(=O)CCCOc1cc(/C=C/C(=O)c2ccccc2)ncc1OC` [Ex. 16, Methyl 4-[5-methoxy-2-(3-oxo-3-phenyl-1-propenyl)-4-pyridyloxy]butanoate]: the inhibition at 1 µM in the test on IL-5 production turned out to be 79.4%. In addition, in the test on IL-4 production [2], the inhibition at 10 µM was found to be 90.1%, the inhibition at 1 µM worked out at 82.1%, the inhibition at 0.1 µM is 81.6% and the inhibition at 0.01 µM is 76.8%.
As for `COc1cnc(/C=C/C(=O)C2CCCC2)cc1OC1CCCC1` [Ex. 10, 2-(3-Cyclopentyl-3-oxo-1-propenyl)-4-cyclopentyloxy-5-methoxypyridine], in the test with IL-5 production, the inhibition at 1 µM worked out at 62.9%. In the test with IL-4 production [2], the inhibition at 10 µM turned out to be 93.6%, the inhibition at 1 µM amounted to 83.5%, the inhibition at 0.1 µM was determined as 83.2% and the inhibition at 0.01 µM came out at 47.8%.
For the molecule `CCCCOc1cc(/C=C/C(=O)c2ccccc2)ncc1OC` [Ex. 46, 4-Butoxy-5-methoxy-2-(3-oxo-3-phenyl-1-propenyl)pyridine], the inhibition at 1 µM in the test on IL-5 production was 86.9%. In the test on IL-4 production [2], the inhibition at 10 µM was 76.6%, the inhibition at 1 µM came out at 69.1%, the inhibition at 0.1 µM turned out to be 33.8% and the inhibition at 0.01 µM worked out at 11.8%.
Take `CCCCCC(O)/C=C/c1cc(OCCCCCC(=O)O)c(OC)cn1` (stereo not drawn) [Ex. 35, 6-[2-(3-Hydroxy-1-octenyl)-5-methoxy-4-pyridyloxy]hexanoic acid]: the inhibition at 1 µM in the test on IL-5 production stood at 82.2%. In addition, in the test on IL-4 production [2], the inhibition at 10 µM amounted to 90.3%, the inhibition at 1 µM turned out to be 89.3%, the inhibition at 0.1 µM is 82.5% and the inhibition at 0.01 µM is 64.3%.
Turning to `COc1cnc(/C=C/C(=O)c2ccccc2)cc1OCCCC(=O)O` [Ex. 33, 4-[5-methoxy-2-(3-oxo-3-phenyl-1-propenyl)-4-pyridyloxy]butanoic acid], the inhibition at 1 µM in the test on IL-5 production came to 72.1%. In the test on IL-4 production [2], the inhibition at 10 µM was determined as 107%, the inhibition at 1 µM was determined as 93.9%, the inhibition at 0.1 µM was 90% and the inhibition at 0.01 µM amounted to 86.1%.
On to `CCOC(=O)CCCCCOc1cc(/C=C/C(=O)c2ccccc2)ncc1OC` [Ex. 12, Ethyl 6-[5-methoxy-2-(3-oxo-3-phenyl-1-propenyl)-4-pyridyloxy]hexanoate], for which, in the test with IL-5 production, the inhibition at 1 µM worked out at 72.4%. Also, in the test with IL-4 production [2], the inhibition at 10 µM was determined as 78.6%, the inhibition at 1 µM was 61.6%, the inhibition at 0.1 µM came to 52.9% and the inhibition at 0.01 µM stood at 43%.
